Assay results taken from ChEMBL document CHEMBL1144167, “Development and biological evaluation of C(60) fulleropyrrolidine-thalidomide dyad as a new anti-inflammation agent” (2008).
The source made the active and inactive calls. No cut-off for these calls is given here.

How the values were obtained:
[1] = system: RAW264.7; experiment: Antiinflammatory activity in mouse RAW264.7 cells assessed as inhibition of LPS-induced TNFalpha synthesis at 10 uM pretreated for 3 hrs before LPS challenge assessed after 24 hrs by ELISA relative to control; assay type: functional; parameters: scale not given: the % may be the effect or the level left
[2] = system: RAW264.7; experiment: Antiinflammatory activity in mouse LPS-activated RAW264.7 cells assessed as mean fluorescent intensity of ROS scavenging activity at 10 uM pretreated for 3 hrs before LPS challenge by FACS; assay type: functional
[3] = system: RAW264.7; experiment: Antiinflammatory activity in mouse LPS-activated RAW264.7 cells assessed as ROS scavenging activity at 10 uM pretreated for 3 hrs before LPS challenge measured by decrease in fluorescent intensity by confocal microscopy; assay type: functional, cell-based
[4] = system: RAW264.7; experiment: Reduction in iNOS expression in LPS-activated mouse RAW264.7 cells at 1 uM pretreated for 3 hrs before LPS challenge assessed after 24 hrs by Western blot; assay type: functional, cell-based
[5] = system: RAW264.7; experiment: Reduction in iNOS expression in LPS-activated mouse RAW264.7 cells at 10 uM pretreated for 3 hrs before LPS challenge assessed after 24 hrs by Western blot; assay type: functional, cell-based
[6] = system: RAW264.7; experiment: Reduction in pERK1/2 expression in LPS-activated mouse RAW264.7 cells at 10 uM pretreated for 3 hrs before LPS challenge assessed after 24 hrs by Western blot; assay type: functional, cell-based
[7] = system: RAW264.7; experiment: Antiinflammatory activity in mouse RAW264.7 cells assessed as inhibition of LPS-induced nitric oxide production pretreated for 3 hrs before LPS challenge assessed after 24 hrs by griess assay; assay type: functional, cell-based
[8] = system: RAW264.7; experiment: Antiinflammatory activity in mouse RAW264.7 cells assessed as inhibition of LPS-induced nitric oxide production at 10 uM pretreated for 3 hrs before LPS challenge assessed after 24 hrs by griess assay relative to control; assay type: functional; parameters: scale not given: the % may be the effect or the level left

O=C1CCC(N2C(=O)c3ccccc3C2=O)C(=O)N1 (stereo not drawn) [THALIDOMIDE]
Activity [1]: 55.5% | Flu intensity [2]: 468.37 | Activity [3]: Active | Activity [4]: Active | Activity [5]: Active | Activity [6]: Active | Activity [7]: Dose-dependent effect | Activity [8]: 44.1%
